In ChEMBL document CHEMBL5365393, “Comprehensive coverage on anti-mycobacterial endeavour reported during 2022” (Eur J Med Chem, 2023):
Converted amounts (≈) assume the structure as drawn.

Tested on: Mycobacterium tuberculosis variant bovis
Test: Antibacterial activity against Mycobacterium bovis BCG assessed as inhibition of bacterial growth incubated for 15 days by REMA method
Format: functional
Settings: 360 h, time 15 day

N#Cc1cc(OCCOc2ccccc2)cc(-c2ccc(C(=O)O)o2)c1
MIC99: 63 µM (≈ 22 µg/mL)
